Test results published in ChEMBL document CHEMBL2429717 (J Med Chem, 2013).

Key:
[1] = Induction of interphase microtubule depolymerization in rat A10 cells after 18 to 24 hrs by DAPI staining-based indirect immunofluorescence assay; format: cell-based
[2] = Induction of interphase microtubule depolymerization in rat A10 cells; format: cell-based
MDA-MB-435 [3] = experiment: Cytotoxicity against human MDA-MB-435 cells assessed as growth inhibition; format: functional, cell-based
Jurkat = experiment: Cytotoxicity against human Jurkat cells assessed as growth inhibition; format: functional, cell-based
Tubulin = experiment: Displacement of [3H]colchicine from tubulin (unknown origin); format: protein-complex assay, Homo sapiens
MDA-MB-435 [4] = experiment: Cytotoxicity against human MDA-MB-435 cells assessed as growth inhibition after 72 hrs by SRB assay; format: functional, cell-based; conditions: MDA-MB-435, 72 h

| EC50 [1] | pEC50 [1] | EC50 [2] | pEC50 [2] | Compound | IC50 (MDA-MB-435 [3]; read-out: IC50) | IC50 (MDA-MB-435 [3]; read-out: pIC50 (converted)) | further results |
| --- | --- | --- | --- | --- | --- | --- | --- |
| 50 µM | 4.3 | – | – | COc1ccc(-c2c(Br)[nH]c(C(=O)OCCN(C)C)c2Br)cc1OC | – | – | – |
| – | – | 7 µM | 5.15 | CCOC(=O)c1[nH]c(Br)c(-c2ccc(OC)cc2)c1Br | 0.843 µM | 0.851 µM | – |
| – | – | 2.4 µM | 5.62 | CCOC(=O)c1[nH]c(Br)c(-c2cccc(OC)c2)c1Br | 0.633 µM | 0.631 µM | – |
| 25 µM | 4.6 | – | – | COc1ccc(-c2c(Br)[nH]c(C(=O)OC(C)(C)C)c2Br)cc1OC | – | – | – |
| – | – | – | – | O=C1/C(=C/c2cc(Cl)cc(Cl)c2)Cc2cc(O)c(O)cc21 | – | – | IC50 (Jurkat; read-out: IC50): > 50 µM; IC50 (Jurkat; read-out: pIC50 (converted)): 100 µM |
| – | – | 500 µM | 3.3 | CCOC(=O)c1[nH]c(C(=O)c2ccc(OC)cc2)c(-c2ccc(OC)cc2)c1-c1ccc(OC)cc1 | 100 µM | 100 µM | – |
| – | – | – | – | O=c1c(O)c(-c2ccc(O)cc2O)oc2cc(O)cc(O)c12 [MORIN] | – | – | Kd (Tubulin): > 100 µM; pKd (Tubulin): 3.7 |
| – | – | – | – | COc1ccc(-c2oc3c(OC)c(OC)c(OC)c(O)c3c(=O)c2OC)cc1O | – | – | Kd (Tubulin): 0.13 µM |
| – | – | 1.6 µM | 5.8 | COc1cccc(N(C)c2nc(C)nc3c2C[C@H](C)C3)c1 | 0.095 µM | 0.0955 µM | – |
| – | – | 520 µM | 3.28 | COc1ccc(Nc2nc(C)nc3c2C[C@@H](C)C3)cc1 | 51 µM | 51.3 µM | – |
| – | – | 83 µM | 4.08 | CCOC(=O)c1[nH]c(Br)c(-c2ccc(Cl)cc2)c1Br | – | – | – |
| 0.22 µM | 6.66 | – | – | COc1ccc(N(C)c2nc(C)nc3cc(C)[nH]c23)cc1 | – | – | IC50 (MDA-MB-435 [4]; read-out: IC50): 0.03 µM; IC50 (MDA-MB-435 [4]; read-out: pIC50 (converted)): 0.0302 µM |
| – | – | 71 µM | 4.15 | CCOC(=O)c1[nH]c(Br)c(-c2cc(OC)c(OC)c(OC)c2)c1Br | – | – | – |
| 1.2 µM | 5.92 | – | – | COc1ccc(N(C)c2nc(C)nc3cc[nH]c23)cc1 | – | – | IC50 (MDA-MB-435 [4]; read-out: IC50): 0.097 µM; IC50 (MDA-MB-435 [4]; read-out: pIC50 (converted)): 0.0955 µM |
| – | – | 27 µM | 4.57 | CCOC(=O)c1[nH]c(Br)c(-c2ccc(OC(F)(F)F)cc2)c1Br | 1.7 µM | 1.7 µM | – |
| – | – | 30 µM | 4.53 | CCOC(=O)c1[nH]c(Br)c(-c2ccc3c(c2)OCO3)c1Br | 1.8 µM | 1.82 µM | – |
| – | – | – | – | COc1ccc(-c2oc3cc(O)c(OC)cc3c(=O)c2OC)cc1O | – | – | Kd (Tubulin): 6 µM |
| – | – | 500 µM | 3.3 | CCOC(=O)c1[nH]c(C(=O)c2ccc(OC)cc2)c(-c2ccc(OC)cc2)c1Br | 100 µM | 100 µM | – |
| 0.23 µM | 6.64 | – | – | COc1ccc2c(c1)CCCN2c1nc(C)nc2cc[nH]c12 | – | – | IC50 (MDA-MB-435 [4]; read-out: IC50): 0.043 µM; IC50 (MDA-MB-435 [4]; read-out: pIC50 (converted)): 0.0427 µM |
| – | – | 18 µM | 4.75 | CCOC(=O)c1[nH]c(Br)c(-c2c[nH]c3ccccc23)c1Br | 2 µM | 2 µM | – |
| – | – | 14 µM | 4.85 | CCOC(=O)c1[nH]c(Br)c(-c2cc(OC)c(OC)cc2Br)c1Br | 2.6 µM | 2.63 µM | – |
| – | – | 6.9 µM | 5.16 | COc1cccc(N(C)c2nc(C)nc3c2C[C@@H](C)C3)c1 | 0.402 µM | 0.398 µM | – |
| – | – | – | – | COc1cc2c(c(N)c1OC)C(=O)/C(=C/c1cc(C)c(O)c(C)c1)C2 | – | – | IC50 (Jurkat; read-out: IC50): 0.001 µM; IC50 (Jurkat; read-out: pIC50 (converted)): 0.001 µM |
| 3.6 µM | 5.44 | – | – | COc1ccc(-c2c(Br)[nH]c(C(=O)OC(C)C)c2Br)cc1OC | – | – | – |
| – | – | 9.9 µM | 5 | CCOC(=O)c1[nH]c(Br)c(-c2ccc(Cl)c(Cl)c2)c1Br | 0.806 µM | 0.813 µM | – |
| 100 µM | 4 | – | – | COc1ccc(OC(=O)c2[nH]c(Br)c(-c3ccc(OC)c(OC)c3)c2Br)cc1 | – | – | – |

| EC50 [1] | pEC50 [1] | EC50 [2] | pEC50 [2] | Compound | IC50 (MDA-MB-435 [3]; read-out: IC50) | IC50 (MDA-MB-435 [3]; read-out: pIC50 (converted)) | further results |
| --- | --- | --- | --- | --- | --- | --- | --- |
| – | – | 500 µM | 3.3 | CCOC(=O)c1c[nH]c(C(=O)c2ccc(OC)cc2)c1-c1ccc(OC)cc1 | 100 µM | 100 µM | – |
| – | – | 100 µM | 4 | CCOC(=O)c1cc(-c2ccc(OC)cc2)c(C(=O)c2ccc(OC)cc2)[nH]1 | 3 µM | 3.02 µM | – |
| – | – | 520 µM | 3.28 | Cc1nc2c(c(N(C)c3ccccc3)n1)C[C@@H](C)C2 | 7.1 µM | 7.08 µM | – |
| – | – | 94 µM | 4.03 | CCOC(=O)c1[nH]c(Br)c(-c2ccc(Br)cc2)c1Br | – | – | – |
| – | – | 500 µM | 3.3 | CCOC(=O)c1c(-c2ccc(OC)c(OC)c2)c(-c2ccc(OC)c(OC)c2)cn1CCc1ccc(OC)c(OC)c1 | 100 µM | 100 µM | – |
| 100 µM | 4 | – | – | COc1ccc(-c2c(Br)[nH]c(C(=O)OCCN(C)C)c2Br)cc1OC.Cl | – | – | – |
| 33 µM | 4.48 | – | – | CCCCOC(=O)c1[nH]c(Br)c(-c2ccc(OC)c(OC)c2)c1Br | – | – | – |
| 100 µM | 4 | – | – | COc1ccc(-c2c(Br)[nH]c(C(=O)OCc3ccccc3)c2Br)cc1OC | – | – | – |
| 14 µM | 4.85 | – | – | CCCCCCOC(=O)c1[nH]c(Br)c(-c2ccc(OC)c(OC)c2)c1Br | – | – | – |
| 8.4 µM | 5.08 | – | – | COc1ccc(N(C)c2nc(N)nc3cc(C)[nH]c23)cc1 | – | – | IC50 (MDA-MB-435 [4]; read-out: IC50): 0.298 µM; IC50 (MDA-MB-435 [4]; read-out: pIC50 (converted)): 0.295 µM |
| – | – | 7 µM | 5.15 | CCOC(=O)c1[nH]c(Br)c(-c2cccc3ccccc23)c1Br | 3.2 µM | 3.24 µM | – |
| – | – | 19 µM | 4.73 | CCOC(=O)c1[nH]c(Br)c(-c2ccc(SC)cc2)c1Br | 0.626 µM | 0.631 µM | – |
| – | – | 43 µM | 4.37 | Cc1nc2c(c(N(C)c3ccccc3)n1)C[C@H](C)C2 | 1.67 µM | 1.66 µM | – |
| 3.3 µM | 5.48 | – | – | CCCOC(=O)c1[nH]c(Br)c(-c2ccc(OC)c(OC)c2)c1Br | – | – | – |
| – | – | 500 µM | 3.3 | CCOC(=O)c1[nH]cc(-c2ccc(OC)cc2)c1-c1ccc(OC)cc1 | – | – | – |
| 1.4 µM | 5.85 | – | – | COc1ccc(N(C)c2ncnc3cc[nH]c23)cc1 | – | – | IC50 (MDA-MB-435 [4]; read-out: IC50): 0.193 µM; IC50 (MDA-MB-435 [4]; read-out: pIC50 (converted)): 0.195 µM |
| – | – | 14 µM | 4.85 | CCOC(=O)c1[nH]c(Br)c(-c2ccc(OC)c(F)c2)c1Br | 0.539 µM | 0.537 µM | – |
| 5 µM | 5.3 | – | – | COC(=O)c1[nH]c(Br)c(-c2ccc(OC)c(OC)c2)c1Br | – | – | – |
| 100 µM | 4 | – | – | COc1ccc(-c2c(Br)[nH]c(C(=O)OCCCN(C)C)c2Br)cc1OC.Cl | – | – | – |
| – | – | 21 µM | 4.68 | CCOC(=O)c1[nH]c(Br)c(-c2ccc3c(c2)OCCO3)c1Br | 4.4 µM | 4.37 µM | – |
| 50 µM | 4.3 | – | – | COc1ccc(-c2c(Br)[nH]c(C(=O)OCCCN(C)C)c2Br)cc1OC | – | – | – |
| – | – | 75 µM | 4.12 | CCOC(=O)c1[nH]c(Br)c(-c2ccc(C)cc2)c1Br | – | 2.24 µM | – |
| – | – | 33 µM | 4.48 | CCOC(=O)c1[nH]c(Br)c(-c2ccc3cc(OCC)ccc3c2)c1Br | 2 µM | 2 µM | – |
| – | – | 167 µM | 3.78 | CCOC(=O)c1[nH]c(Br)c(-c2ccccc2)c1Br | – | 10.2 µM | – |
| – | – | 500 µM | 3.3 | COc1ccc(C(=O)c2[nH]c(C(=O)c3ccc(OC)cc3)c(-c3ccc(OC)cc3)c2-c2ccc(OC)cc2)cc1 | 100 µM | 100 µM | – |
| – | – | 4.5 µM | 5.35 | COc1ccc([C@H]2[C@H](c3cc(OC)c(OC)c(OC)c3)C(C)=NN2C(C)=O)cc1O | – | – | – |
